{
  "source": "patent US20230021483A1",
  "about": "“[…] […] METHOD AND CLASSIFICATION OF PHARMACEUTICAL COMPONENTS BY USING TRANSCRIPTOMES” (National Institutes of Biomedical Innovation, Health and …, priority 2016, published 2023)",
  "format_in_all_cases": "in vivo, C57BL/6 mice",
  "key": {"[1]": {"tested_on": "inguinal lymph nodes (LN)", "test": "Whole organ transcriptome (GeneChip microarray) of draining inguinal lymph nodes 6 h after adjuvant administration: sDEGs, gene modules, hierarchical clustering; for adjuvant group (cluster) in LN: key: G1 (interferon signaling); G2 (metabolism of lipids and lipoproteins); G3 (response to stress); G4 (response to wounding); G5 (phosphate-containing compound metabolic process); G6 (phagosome)"}, "[2]": {"tested_on": "spleen (SP)", "test": "Whole organ transcriptome (GeneChip microarray) of spleen 6 h after adjuvant administration: sDEGs, hierarchical clustering; for adjuvant group (cluster) in SP: key: G1 (interferon signaling); G2 (metabolism of lipids and lipoproteins); G3 (response to stress); G4 (response to wounding); G5 (phosphate-containing compound metabolic process); G6 (phagosome)"}, "[3]": {"tested_on": "preferentially upregulated genes in LV, SP, LN", "test": "Z-score-based differential gene expression analysis (adjuvant group- or adjuvant-associated genes, 40 module mapping, TargetMine annotation)", "set-up": "key to z sum, 1458589_at ---: sum of the per-gene fold-change z-scores of the triplicate samples", "details": "ID", "procedure,_shortened": "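Gene groups for each organ were built from combined z-score cutoffs across adjuvants, ranging from z>1 to z>3. Scores came from fold changes standardized per gene over the whole organ data set, with the three replicate z-scores added per adjuvant; sums above 3 marked preferential expression.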"}},
  "data": [
    {"smiles": "Nc1nc2c(ncn2[C@@H]2O[C@@H]3COP(=O)(O)O[C@H]4[C@@H](O)[C@H](n5cnc6c(N)ncnc65)O[C@@H]4COP(=O)(O)O[C@@H]2[C@@H]3O)c(=O)[nH]1", "note": "[cGAMP, Cyclic [G(2′,5′)pA(3′,5′)p]]", "values": [
      {"measurement": "module M40^LN (immune system process; dendritic cells, macrophages, neutrophils, stromal cells)", "setting": "[1]; LN, 6 h", "value": "strongly induced"},
      {"measurement": "adjuvant group (cluster) in LN", "setting": "[1]; hierarchical clustering, lymph node", "value": "G1"},
      {"measurement": "Number of gene probes with statistically significant changes (sDEGs), LN, Down", "setting": "[1]; i.d. administration, lymph node, fold change <0.667, p<0.01, customized PA call=1, 6 h after adjuvant", "value": 255},
      {"measurement": "Number of gene probes with statistically significant changes (sDEGs), LN, Up", "setting": "[1]; i.d. administration, lymph node, fold change >1.5, p<0.01, customized PA call=1, 6 h after adjuvant", "value": 1135},
      {"measurement": "adjuvant group (cluster) in SP", "setting": "[2]; hierarchical clustering", "value": "G1"},
      {"measurement": "Number of gene probes with statistically significant changes (sDEGs), SP, Down", "setting": "[2]; i.d. administration, fold change <0.667, p<0.01, customized PA call=1, 6 h after adjuvant", "value": 93},
      {"measurement": "Number of gene probes with statistically significant changes (sDEGs), SP, Up", "setting": "[2]; i.d. administration, fold change >1.5, p<0.01, customized PA call=1, 6 h after adjuvant", "value": 680},
      {"measurement": "z sum, 1428027_at LOC100653389", "setting": "[3]; LN, Modules 26", "value": "−1.72"},
      {"measurement": "z sum, 1419721_at Niacr1", "setting": "[3]; LN, Modules 27", "value": "−2.05"},
      {"measurement": "z sum, 1418424_at Tnfaip6", "setting": "[3]; LN, Modules 29", "value": "−2.05"},
      {"measurement": "z sum, 1419534_at Olr1", "setting": "[3]; LN, Modules 29", "value": "−2.35"},
      {"measurement": "z sum, 1421457_a_at Samsn1", "setting": "[3]; LN, Modules 29", "value": "−1.88"},
      {"measurement": "z sum, 1422305_at Ifnb1", "setting": "[3]; LN, Modules 29", "value": "−1.97"},
      {"measurement": "z sum, 1423028_at Ifna2", "setting": "[3]; LN, Modules 29", "value": "−1.92"},
      {"measurement": "z sum, 1425837_a_at Ccrn4l", "setting": "[3]; LN, Modules 29", "value": "−2.11"},
      {"measurement": "z sum, 1436387_at C330006P03Rik///Homer1", "setting": "[3]; LN, Modules 29", "value": "−1.73"},
      {"measurement": "z sum, 1439349_at Sbno2", "setting": "[3]; LN, Modules 29", "value": "−2.1"},
      {"measurement": "z sum, 1444010_at Eif4e", "setting": "[3]; LN, Modules 29", "value": "−1.99"},
      {"measurement": "z sum, 1448325_at Ppp1r15a", "setting": "[3]; LN, Modules 29", "value": "−2.32"},
      {"measurement": "z sum, 1449311_at Bach1", "setting": "[3]; LN, Modules 29", "value": "−1.95"},
      {"measurement": "z sum, 1450297_at Il6", "setting": "[3]; LN, Modules 29", "value": "−2.07"},
      {"measurement": "z sum, 1455197_at Rnd1", "setting": "[3]; LN, Modules 29", "value": "−2.12"},
      {"measurement": "z sum, 1455899_x_at Socs3", "setting": "[3]; LN, Modules 29", "value": "−2.14"},
      {"measurement": "z sum, 1417252_at Ptgs2", "setting": "[3]; LN, Modules 34", "value": "−2.41"},
      {"measurement": "z sum, 1417263_at Ptgs2", "setting": "[3]; LN, Modules 34", "value": "−2.18"},
      {"measurement": "z sum, 1419132_at Tfr2", "setting": "[3]; LN, Modules 34", "value": "−1.86"},
      {"measurement": "z sum, 1421473_at Il1a", "setting": "[3]; LN, Modules 34", "value": "−2.25"},
      {"measurement": "z sum, 1439981_at Tespa1", "setting": "[3]; LN, Modules 35", "value": "−2.15"},
      {"measurement": "z sum, 1441843_s_at 5230400M03Rik", "setting": "[3]; LN, Modules 35", "value": "−1.71"},
      {"measurement": "z sum, 1442556_at ---", "setting": "[3]; LN, Modules 35", "value": "−1.95"},
      {"measurement": "z sum, 1443414_at C78513", "setting": "[3]; LN, Modules 35", "value": "−1.91"},
      {"measurement": "z sum, 1444598_at ---", "setting": "[3]; LN, Modules 35", "value": "−1.93"},
      {"measurement": "z sum, 1445534_at ---", "setting": "[3]; LN, Modules 35", "value": "−1.93"},
      {"measurement": "z sum, 1446245_at ---", "setting": "[3]; LN, Modules 35", "value": "−1.58"},
      {"measurement": "z sum, 1457944_at ---", "setting": "[3]; LN, Modules 35", "value": "−1.78"},
      {"measurement": "z sum, 1458376_at B930025B16Rik", "setting": "[3]; LN, Modules 35", "value": "−1.85"},
      {"measurement": "z sum, 1459144_at ---", "setting": "[3]; LN, Modules 35", "value": "−1.91"},
      {"measurement": "z sum, 1425687_at Cflar", "setting": "[3]; LN, Modules 36", "value": "−2.21"},
      {"measurement": "z sum, 1427736_a_at Ccrl2", "setting": "[3]; LN, Modules 36", "value": "−1.74"},
      {"measurement": "z sum, 1449169_at Has2", "setting": "[3]; LN, Modules 36", "value": "−1.67"},
      {"measurement": "z sum, 1453636_at Pcgf5", "setting": "[3]; LN, Modules 36", "value": "−1.86"},
      {"measurement": "z sum, 1457888_at ---", "setting": "[3]; LN, Modules 36", "value": "−1.91"},
      {"measurement": "z sum, 1419508_at Ripk1", "setting": "[3]; LN, Modules 37", "value": "−1.9"},
      {"measurement": "z sum, 1421578_at Ccl4", "setting": "[3]; LN, Modules 37", "value": "−2.14"},
      {"measurement": "z sum, 1421679_a_at Cdkn1a", "setting": "[3]; LN, Modules 37", "value": "−1.99"},
      {"measurement": "z sum, 1424638_at Cdkn1a", "setting": "[3]; LN, Modules 37", "value": "−2.22"},
      {"measurement": "z sum, 1433508_at Klf6", "setting": "[3]; LN, Modules 37", "value": "−2.41"},
      {"measurement": "z sum, 1434350_at Csrnp1", "setting": "[3]; LN, Modules 37", "value": "−1.97"},
      {"measurement": "z sum, 1439680_at Tnfsf10", "setting": "[3]; LN, Modules 37", "value": "−1.65"},
      {"measurement": "z sum, 1448724_at Cish", "setting": "[3]; LN, Modules 37", "value": "−2.38"},
      {"measurement": "z sum, 1451340_at Arid5a", "setting": "[3]; LN, Modules 37", "value": "−1.67"},
      {"measurement": "z sum, 1453851_a_at Gadd45g", "setting": "[3]; LN, Modules 37", "value": "−1.96"},
      {"measurement": "z sum, 1457404_at Nfkbiz", "setting": "[3]; LN, Modules 37", "value": "−1.92"},
      {"measurement": "z sum, 1458589_at ---", "setting": "[3]; LN, Modules 37", "value": "−2.36"},
      {"measurement": "z sum, 1422054_a_at 5kil", "setting": "[3]; LN, Modules 40", "value": "−2.23"},
      {"measurement": "z sum, 1428735_at Cd69", "setting": "[3]; LN, Modules 40", "value": "−1.52"},
      {"measurement": "Adar 1425405_a_at (Group G1, Modules 20)", "setting": "[3]; LV, sample x1", "value": 2.95},
      {"measurement": "Adar 1434268_at (Group G1, Modules 20)", "setting": "[3]; LV, sample x1", "value": 2.22},
      {"measurement": "Ddx58 1436562_at (Group G1, Modules 20)", "setting": "[3]; LV, sample x1", "value": 2.04},
      {"measurement": "Ddx58 1456890_at (Group G1, Modules 20)", "setting": "[3]; LV, sample x1", "value": 2.26},
      {"measurement": "Eif2ak2 1422005_at (Group G1, Modules 20)", "setting": "[3]; LV, sample x1", "value": 3.11},
      {"measurement": "G3bp2 1421323_a_at (Group G1, Modules 20)", "setting": "[3]; LV, sample x1", "value": 3.19},
      {"measurement": "Gm9706///Isg15 1431591_s_at (Group G1, Modules 20)", "setting": "[3]; LV, sample x1", "value": 2.13},
      {"measurement": "H2-T10///H2-T22///H2-T9 1449875_s_at (Group G1, Modules 20)", "setting": "[3]; LV, sample x1", "value": 2.29},
      {"measurement": "Ifih1 1426276_at (Group G1, Modules 20)", "setting": "[3]; LV, sample x1", "value": 1.73},
      {"measurement": "Ifit1 1450783_at (Group G1, Modules 20)", "setting": "[3]; LV, sample x1", "value": 2.75},
      {"measurement": "Ifit3 1449025_at (Group G1, Modules 20)", "setting": "[3]; LV, sample x1", "value": 2.13},
      {"measurement": "Irf7 1417244_a_at (Group G1, Modules 20)", "setting": "[3]; LV, sample x1", "value": 1.6},
      {"measurement": "Irgm1 1418825_at (Group G1, Modules 20)", "setting": "[3]; LV, sample x1", "value": 2.25},
      {"measurement": "Mndal 1426906_at (Group G1, Modules 20)", "setting": "[3]; LV, sample x1", "value": 2.08},
      {"measurement": "Pml 1448757_at (Group G1, Modules 20)", "setting": "[3]; LV, sample x1", "value": 2.13}
    ]}
  ]
}
